Experimental findings from PubChem BioAssay AID328 (DTP/NCI, 2004) are described below.

The structures appear in SMILES notation. Values joined by “and” are separate entries in the source; they are usually repeats but may differ in a detail not shown here. Equal values may be shown once. Inconclusive results and toxic doses are left out.

This test has as its system BDF1 mice, P388 leukemia ip, median survival T/C. Kind of test: NCI In Vivo Anticancer Drug Screen. Data for tumor model P388 Leukemia (intraperitoneal) in B6D2F1 (BDF1) mice. The note with it: endpoint: median survival time, higher = longer survival. The method, then:
The antitumor activity of compounds was measured in mice bearing transplantable tumors. Survival or tumor size were measured and the results are expressed as the measurement made in the treated group (T) divided by the measurement made in the vehicle treated control group (C). The tumor model used in this assay is P388 Leukemia (intraperitoneal) in B6D2F1 (BDF1) mice

[1] abbreviates: dose: 100.0 mg/kg/injection, schedule: Q01DX009 (ip), vehicle: saline with Tween-80.
Where [2] appears, read: dose: 100.0 mg/kg/injection, schedule: Q04DX003 (ip), vehicle: saline with Tween-80.
Where [3] appears, read: dose: 200.0 mg/kg/injection, schedule: Q01DX009 (ip), vehicle: saline with Tween-80.
[4] abbreviates: dose: 200.0 mg/kg/injection, schedule: Q04DX003 (ip), vehicle: saline with Tween-80.
Where [5] appears, read: dose: 400.0 mg/kg/injection, schedule: Q01DX009 (ip), vehicle: saline with Tween-80.
The mark [6] stands for this setting: dose: 400.0 mg/kg/injection, schedule: Q04DX003 (ip), vehicle: saline with Tween-80.
Where [7] appears, read: dose: 6.25 mg/kg/injection, schedule: Q01DX009 (ip), vehicle: saline.
[8] abbreviates: dose: 12.5 mg/kg/injection, schedule: Q01DX009 (ip), vehicle: saline.
[9] abbreviates: dose: 50.0 mg/kg/injection, schedule: Q01DX009 (ip), vehicle: saline with Tween-80.
[10] abbreviates: dose: 50.0 mg/kg/injection, schedule: Q04DX003 (ip), vehicle: saline with Tween-80.

For `O=c1cc(O)ccn1CC(O)c1ccc(Cl)s1` (centres undefined), the T/C is 101 % of control and 111 % of control under setting [1]; 109 % of control under setting [2]; 92 % of control and 104 % of control under setting [3]; 110 % of control under setting [4]; 108 % of control and 113 % of control under setting [5]; 119 % of control under setting [6].
Turning to `CCCOCNC(=O)c1cccnc1`, the T/C (dose: 100.0 mg/kg/injection, schedule: Q01DX001 (ip), vehicle: saline) was 95 % of control; the T/C (dose: 200.0 mg/kg/injection, schedule: Q01DX001 (ip), vehicle: saline) is 100 % of control; the T/C (dose: 400.0 mg/kg/injection, schedule: Q01DX001 (ip), vehicle: saline) is 100 % of control.
`CC([NH-])C(=O)O.CC([NH-])C(=O)O.[Ni+2]` (centres undefined): the T/C was 109 % of control (dose: 4.0 mg/kg/injection, schedule: Q01DX009 (ip), vehicle: saline); 103 % of control under setting [7]; 113 % of control (dose: 8.0 mg/kg/injection, schedule: Q01DX009 (ip), vehicle: saline); 107 % of control under setting [8]; 113 % of control (dose: 15.0 mg/kg/injection, schedule: Q04DX003 (ip), vehicle: saline); 113 % of control (dose: 16.0 mg/kg/injection, schedule: Q01DX009 (ip), vehicle: saline). For the same compound, the T/C (dose: 25.0 mg/kg/injection, schedule: Q04DX003 (ip), vehicle: saline) was 118 % of control.
For the compound `O=CCSC(=S)NNc1ccccc1`, the T/C (dose: 75.0 mg/kg/injection, schedule: Q01DX001 (ip), vehicle: Klucel (hydroxypropylcellulose) (HPC)) is 110 % of control; the T/C (dose: 150.0 mg/kg/injection, schedule: Q01DX001 (ip), vehicle: Klucel (hydroxypropylcellulose) (HPC)) is 105 % of control; the T/C (dose: 300.0 mg/kg/injection, schedule: Q01DX001 (ip), vehicle: Klucel (hydroxypropylcellulose) (HPC)) is 95 % of control.
On to `Cc1ccc(NC(=O)NC2CCCCC2)cc1`, for which the T/C is, setting by setting: under setting [1], 91 % of control; under setting [3], 88 % of control; under setting [5], 100 % of control.
On to `Cc1nc(Cl)c(C(N)=O)nc1C`, for which the T/C by setting is: (dose: 12.5 mg/kg/injection, schedule: Q01DX009 (ip), vehicle: saline with Tween-80) 91 % of control; (dose: 25.0 mg/kg/injection, schedule: Q01DX009 (ip), vehicle: saline with Tween-80) 88 % of control and 94 % of control; under setting [9], 97 % of control; under setting [10], 113 % of control; under setting [1], 90 % of control and 106 % of control; under setting [2], 96 % of control. The T/C was 97 % of control (dose: 150.0 mg/kg/injection, schedule: Q01DX009 (ip), vehicle: saline with Tween-80); 92 % of control under setting [4]; 99 % of control under setting [6].
In the case of `COc1cccc(/C=C(/SC)S(C)=O)c1OC` (centres undefined), the T/C was 106 % of control (dose: 100.0 mg/kg/injection, schedule: Q04DX003 (ip), vehicle: saline); 115 % of control (dose: 200.0 mg/kg/injection, schedule: Q04DX003 (ip), vehicle: saline); 120 % of control (dose: 400.0 mg/kg/injection, schedule: Q04DX003 (ip), vehicle: saline).
`CN(C)c1ccc(/C=C\c2cc(=O)[nH]c3ccccc23)cc1`: the T/C reads like this: (dose: 100.0 mg/kg/injection, schedule: Q04DX003 (ip), vehicle: Klucel (hydroxypropylcellulose) (HPC)) 87 % of control; (dose: 200.0 mg/kg/injection, schedule: Q04DX003 (ip), vehicle: Klucel (hydroxypropylcellulose) (HPC)) 91 % of control; (dose: 400.0 mg/kg/injection, schedule: Q04DX003 (ip), vehicle: Klucel (hydroxypropylcellulose) (HPC)) 87 % of control.
`CC1(C)OC(C)(C)c2c1nnc(-c1ccccc1)[n+]2[O-]`: the T/C is 91 % of control (dose: 50.0 mg/kg/injection, schedule: Q01DX005 (ip), vehicle: saline with Tween-80); 98 % of control (dose: 100.0 mg/kg/injection, schedule: Q01DX005 (ip), vehicle: saline with Tween-80); 88 % of control (dose: 200.0 mg/kg/injection, schedule: Q01DX005 (ip), vehicle: saline with Tween-80).
Turning to `CC(C)=CCOc1ccc(C(=O)/C=C/c2ccccc2)c(O)c1`, the T/C (dose: 1.25 mg/kg/injection, schedule: Q01DX009 (ip), vehicle: Klucel (hydroxypropylcellulose) (HPC)) was 108 % of control; the T/C (dose: 2.5 mg/kg/injection, schedule: Q01DX009 (ip), vehicle: Klucel (hydroxypropylcellulose) (HPC)) is 101 % of control; the T/C (dose: 5.0 mg/kg/injection, schedule: Q01DX009 (ip), vehicle: Klucel (hydroxypropylcellulose) (HPC)) is 107 % of control; the T/C (dose: 10.0 mg/kg/injection, schedule: Q01DX009 (ip), vehicle: Klucel (hydroxypropylcellulose) (HPC)) is 91 % of control; the T/C (dose: 20.0 mg/kg/injection, schedule: Q01DX009 (ip), vehicle: Klucel (hydroxypropylcellulose) (HPC)) is 104 % of control; the T/C (dose: 40.0 mg/kg/injection, schedule: Q01DX009 (ip), vehicle: Klucel (hydroxypropylcellulose) (HPC)) was 89 % of control.
Turning to `CN1Cc2cc3cc(c2O)C[N+](C)(C)Cc2c(Cl)c(c(Cl)c(c2Cl)C[N+](C)(C)C3)C1`, the T/C is 118 % of control under setting [7]; 108 % of control (dose: 8.2 mg/kg/injection, schedule: Q01DX009 (ip), vehicle: saline); 108 % of control under setting [8]; 104 % of control (dose: 25.0 mg/kg/injection, schedule: Q01DX001 (ip), vehicle: saline); 109 % of control (dose: 25.0 mg/kg/injection, schedule: Q01DX009 (ip), vehicle: saline); 100 % of control (dose: 50.0 mg/kg/injection, schedule: Q01DX001 (ip), vehicle: saline). In addition, the T/C (dose: 118.0 mg/kg/injection, schedule: Q01DX009 (ip), vehicle: saline) is 112 % of control.
Turning to `Cn1cnc2c1c(=O)[nH]c(=O)n2C`, the T/C is 109 % of control (dose: 100.0 mg/kg/injection, schedule: Q01DX009 (ip), vehicle: Klucel (hydroxypropylcellulose) (HPC)); 104 % of control (dose: 200.0 mg/kg/injection, schedule: Q01DX009 (ip), vehicle: Klucel (hydroxypropylcellulose) (HPC)); 97 % of control (dose: 400.0 mg/kg/injection, schedule: Q01DX009 (ip), vehicle: Klucel (hydroxypropylcellulose) (HPC)).
For the compound `Oc1c(Cl)cc(Cl)cc1C1N=NC2=C(CCCC2)N1O` (centres undefined), the T/C is, setting by setting: under setting [9], 106 % of control; under setting [1], 88 % of control; under setting [3], 93 % of control.
In the case of `O=C(O)C(O)C(O)C1[O][Sb][O]C1CO` (centres undefined), the T/C runs as follows: (dose: 22.0 mg/kg/injection, schedule: Q04DX003 (ip), vehicle: saline) 110 % of control; (dose: 50.0 mg/kg/injection, schedule: Q01DX009 (ip), vehicle: saline) 150 % of control; (dose: 75.0 mg/kg/injection, schedule: Q01DX009 (ip), vehicle: saline) 155 % of control; (dose: 100.0 mg/kg/injection, schedule: Q01DX009 (ip), vehicle: saline) 166 % of control; (dose: 150.0 mg/kg/injection, schedule: Q01DX009 (ip), vehicle: saline) 155 % of control; (dose: 150.0 mg/kg/injection, schedule: Q04DX003 (ip), vehicle: saline) 177 % of control. Moreover, for the setting “dose: 225.0 mg/kg/injection, schedule: Q01DX009 (ip), vehicle: saline”, the T/C is 150 % of control and 183 % of control.
For the compound `COC(=O)c1cc(C)c(Br)c(OC)c1`, the T/C was 95 % of control (dose: 12.0 mg/kg/injection, schedule: Q01DX009 (ip), vehicle: Klucel (hydroxypropylcellulose) (HPC)); 90 % of control (dose: 25.0 mg/kg/injection, schedule: Q01DX009 (ip), vehicle: Klucel (hydroxypropylcellulose) (HPC)); 90 % of control (dose: 50.0 mg/kg/injection, schedule: Q01DX009 (ip), vehicle: Klucel (hydroxypropylcellulose) (HPC)).
For `O=C1c2ccccc2C(=O)c2c(Sc3ccccc3)cccc21`, the T/C under setting [3] was 95 % of control.
Consider `O=C(NO)c1ccc(O)c(O)c1`, for which the T/C (dose: 200.0 mg/kg/injection, schedule: Q01DX005 (ip), vehicle: water) was 153 % of control and the T/C (dose: 400.0 mg/kg/injection, schedule: Q01DX005 (ip), vehicle: water) was 166 % of control.
For `N/N=C1/CCN2CCCc3cccc1c32`, the T/C under setting [10] is 100 % of control and the T/C under setting [2] was 110 % of control.
